The supplement of paper PMC9013687

What was measured:
Danio rerio embryo [1] = test system: Danio rerio embryo
Procedure: (§1)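 Zebrafish embryos (UFZ-OBI strain) were exposed from 2 hpf for 48 h (2 dpf) or 96 h (4 dpf) at 28 °C; spontaneous tail coiling was scored at 25 hpf. Morphological features from automated image analysis (FishInspector), heart rate and locomotor response were fitted with drc models. Quantal endpoints were dichotomised at 2.5 SD from controls and fitted with a log-logistic model; heart rate, pigmentation and STC were normalised to the replicate control mean. Betamethasone was tested as betamethasone dipropionate, diflorasone as diflorasone diacetate.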

Danio rerio embryo [2] = conditions: exposure time: 4 dpf
Procedure: as §1

Danio rerio embryo [3] = assay: EC50 Curvature_Increase
Procedure: as §1

Danio rerio embryo [4] = assay: EC50 Body length_Decrease
Procedure: as §1

Danio rerio embryo [5] = assay: EC50 Bladder size_Decrease; conditions: exposure time: 4 dpf
Procedure: as §1

Danio rerio embryo [6] = assay: EC50 Pericard size_Increase
Procedure: as §1

Danio rerio embryo [7] = assay: EC50 Yolk sac size_Increase; conditions: exposure time: 4 dpf
Procedure: as §1

Danio rerio embryo [8] = assay: EC50 Eye-jaw distance_Decrease; conditions: exposure time: 4 dpf
Procedure: as §1

Danio rerio embryo [9] = assay: EC50 Otolith-eye distance_Decrease; conditions: exposure time: 4 dpf
Procedure: as §1

Danio rerio embryo [10] = assay: EC10 LMR dark; higher = less potent; conditions: exposure time: 4 dpf
Procedure: as §1

Danio rerio embryo [11] = assay: EC20 LMR dark; higher = less potent; conditions: exposure time: 4 dpf
Procedure: as §1

Danio rerio embryo [12] = assay: EC20 Any effect; higher = less potent
Procedure: as §1

Danio rerio embryo [13] = assay: EC10 Any effect; higher = less potent
Procedure: as §1

Danio rerio embryo [14] = assay: EC10 Curvature_Increase; higher = less potent
Procedure: as §1

Danio rerio embryo [15] = assay: EC20 Curvature_Increase; higher = less potent
Procedure: as §1

Danio rerio embryo [16] = assay: EC20 Body length_Decrease; higher = less potent
Procedure: as §1

Danio rerio embryo [17] = assay: EC10 Body length_Decrease; higher = less potent
Procedure: as §1

Danio rerio embryo [18] = assay: EC10 Bladder size_Decrease; higher = less potent; conditions: exposure time: 4 dpf
Procedure: as §1

Danio rerio embryo [19] = assay: EC20 Bladder size_Decrease; higher = less potent; conditions: exposure time: 4 dpf
Procedure: as §1

Danio rerio embryo [20] = assay: EC20 Yolk sac size_Increase; higher = less potent; conditions: exposure time: 4 dpf
Procedure: as §1

Danio rerio embryo [21] = assay: EC20 Pericard size_Increase; higher = less potent
Procedure: as §1

Danio rerio embryo [22] = assay: EC10 Yolk sac size_Increase; higher = less potent; conditions: exposure time: 4 dpf
Procedure: as §1

Danio rerio embryo [23] = assay: EC10 Pericard size_Increase; higher = less potent
Procedure: as §1

Danio rerio embryo [24] = assay: EC20 Eye-jaw distance_Decrease; higher = less potent; conditions: exposure time: 4 dpf
Procedure: as §1

Danio rerio embryo [25] = assay: EC10 Eye-jaw distance_Decrease; higher = less potent; conditions: exposure time: 4 dpf
Procedure: as §1

Danio rerio embryo [26] = assay: EC20 Otolith-eye distance_Decrease; higher = less potent; conditions: exposure time: 4 dpf
Procedure: as §1

Danio rerio embryo [27] = assay: EC10 Otolith-eye distance_Decrease; higher = less potent; conditions: exposure time: 4 dpf
Procedure: as §1

Danio rerio embryo [28] = assay: spontaneous tail coiling frequency (coils/min/embryo); higher = more spontaneous movement; conditions: 25 hpf
Procedure: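 Spontaneous tail coilings of zebrafish embryos exposed from 2 hpf were recorded at 24-25 hpf in 1-min videos and detected by a KNIME workflow from grey-value variance. Betamethasone was tested as the dipropionate, diflorasone as the diacetate.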

CC(C)(C)C(O)/C(=C/c1ccc(Cl)cc1Cl)n1cncn1 (stereo not drawn) [Diniconazole]
Conditions | EC10 Any effect [µM] | EC10 Body length Decrease [µM] | EC10 Curvature Increase [µM] | EC10 Pericard size Increase [µM] | EC20 Any effect [µM] | EC20 Body length Decrease [µM] | EC20 Curvature Increase [µM] | EC20 Pericard size Increase [µM] | EC50 Any effect [µM] | EC50 Body length Decrease [µM] | EC50 Curvature Increase [µM] | EC50 LMR ligth decrease [µM] | EC50 Pericard size Increase [µM] | EC50 Pigmentation increase [µM] | spontaneous tail coiling frequency
Danio rerio embryo [1], exposure time: 2 dpf | – | – | – | – | – | – | – | – | 3.77 | – | – | – | – | – | –
Danio rerio embryo [1], exposure time: 4 dpf | – | – | – | – | – | – | – | – | 2.61 | – | – | 2.31 | – | 11.8 | –
Danio rerio embryo [3], exposure time: 2 dpf | – | – | – | – | – | – | – | – | – | – | 7.07 | – | – | – | –
Danio rerio embryo [3], exposure time: 4 dpf | – | – | – | – | – | – | – | – | – | – | 6.35 | – | – | – | –
Danio rerio embryo [4], exposure time: 2 dpf | – | – | – | – | – | – | – | – | – | 8.59 | – | – | – | – | –
Danio rerio embryo [4], exposure time: 4 dpf | – | – | – | – | – | – | – | – | – | 6.97 | – | – | – | – | –
Danio rerio embryo [6], exposure time: 2 dpf | – | – | – | – | – | – | – | – | – | – | – | – | 5.78 | – | –
Danio rerio embryo [6], exposure time: 4 dpf | – | – | – | – | – | – | – | – | – | – | – | – | 3.83 | – | –
Danio rerio embryo [12], exposure time: 2 dpf | – | – | – | – | 3 | – | – | – | – | – | – | – | – | – | –
Danio rerio embryo [12], exposure time: 4 dpf | – | – | – | – | 1.89 | – | – | – | – | – | – | – | – | – | –
Danio rerio embryo [13], exposure time: 2 dpf | 2.63 | – | – | – | – | – | – | – | – | – | – | – | – | – | –
Danio rerio embryo [13], exposure time: 4 dpf | 1.56 | – | – | – | – | – | – | – | – | – | – | – | – | – | –
Danio rerio embryo [14], exposure time: 2 dpf | – | – | 3.94 | – | – | – | – | – | – | – | – | – | – | – | –
Danio rerio embryo [14], exposure time: 4 dpf | – | – | 2.76 | – | – | – | – | – | – | – | – | – | – | – | –
Danio rerio embryo [15], exposure time: 2 dpf | – | – | – | – | – | – | 4.89 | – | – | – | – | – | – | – | –
Danio rerio embryo [15], exposure time: 4 dpf | – | – | – | – | – | – | 3.75 | – | – | – | – | – | – | – | –
Danio rerio embryo [16], exposure time: 2 dpf | – | – | – | – | – | 7.36 | – | – | – | – | – | – | – | – | –
Danio rerio embryo [16], exposure time: 4 dpf | – | – | – | – | – | 6.12 | – | – | – | – | – | – | – | – | –
Danio rerio embryo [17], exposure time: 2 dpf | – | 6.73 | – | – | – | – | – | – | – | – | – | – | – | – | –
Danio rerio embryo [17], exposure time: 4 dpf | – | 5.67 | – | – | – | – | – | – | – | – | – | – | – | – | –
Danio rerio embryo [21], exposure time: 2 dpf | – | – | – | – | – | – | – | 2.51 | – | – | – | – | – | – | –
Danio rerio embryo [21], exposure time: 4 dpf | – | – | – | – | – | – | – | 3.81 | – | – | – | – | – | – | –
Danio rerio embryo [23], exposure time: 2 dpf | – | – | – | 1.54 | – | – | – | – | – | – | – | – | – | – | –
Danio rerio embryo [23], exposure time: 4 dpf | – | – | – | 3.8 | – | – | – | – | – | – | – | – | – | – | –
Danio rerio embryo [28], 1.13 µM | – | – | – | – | – | – | – | – | – | – | – | – | – | – | 1.89
Danio rerio embryo [28], 1.7 µM | – | – | – | – | – | – | – | – | – | – | – | – | – | – | 2.58
Danio rerio embryo [28], 2.55 µM | – | – | – | – | – | – | – | – | – | – | – | – | – | – | 2.31
Danio rerio embryo [28], 3.8 µM | – | – | – | – | – | – | – | – | – | – | – | – | – | – | 2.05
Danio rerio embryo [28], 5.75 µM | – | – | – | – | – | – | – | – | – | – | – | – | – | – | 2.87
Danio rerio embryo [28], 7.66 µM | – | – | – | – | – | – | – | – | – | – | – | – | – | – | 3.42
Danio rerio embryo [28], 9.2 µM | – | – | – | – | – | – | – | – | – | – | – | – | – | – | 3.35

Conditions | EC10 Bladder size Decrease [µM] | EC10 Eye-jaw distance Decrease [µM] | EC10 LMR dark [µM] | EC10 Otolith-eye distance Decrease [µM] | EC10 Yolk sac size Increase [µM] | EC20 Bladder size Decrease [µM] | EC20 Eye-jaw distance Decrease [µM] | EC20 LMR dark [µM] | EC20 Otolith-eye distance Decrease [µM] | EC20 Yolk sac size Increase [µM] | EC50 Bladder size Decrease [µM] | EC50 Eye-jaw distance Decrease [µM] | EC50 LMR dark [µM] | EC50 Otolith-eye distance Decrease [µM] | EC50 Yolk sac size Increase [µM]
Danio rerio embryo [2] | – | – | – | – | – | – | – | – | – | – | – | – | 4.3 | – | –
Danio rerio embryo [5] | – | – | – | – | – | – | – | – | – | – | 2.35 | – | – | – | –
Danio rerio embryo [7] | – | – | – | – | – | – | – | – | – | – | – | – | – | – | 3.05
Danio rerio embryo [8] | – | – | – | – | – | – | – | – | – | – | – | 2.91 | – | – | –
Danio rerio embryo [9] | – | – | – | – | – | – | – | – | – | – | – | – | – | 5.4 | –
Danio rerio embryo [10] | – | – | 2.25 | – | – | – | – | – | – | – | – | – | – | – | –
Danio rerio embryo [11] | – | – | – | – | – | – | – | 2.86 | – | – | – | – | – | – | –
Danio rerio embryo [18] | 1.71 | – | – | – | – | – | – | – | – | – | – | – | – | – | –
Danio rerio embryo [19] | – | – | – | – | – | 1.92 | – | – | – | – | – | – | – | – | –
Danio rerio embryo [20] | – | – | – | – | – | – | – | – | – | 1.74 | – | – | – | – | –
Danio rerio embryo [22] | – | – | – | – | 1.26 | – | – | – | – | – | – | – | – | – | –
Danio rerio embryo [24] | – | – | – | – | – | – | 2.57 | – | – | – | – | – | – | – | –
Danio rerio embryo [25] | – | 2.39 | – | – | – | – | – | – | – | – | – | – | – | – | –
Danio rerio embryo [26] | – | – | – | – | – | – | – | – | 4.28 | – | – | – | – | – | –
Danio rerio embryo [27] | – | – | – | 3.74 | – | – | – | – | – | – | – | – | – | – | –
